pKd: −log10 of the molar value. One block for each compound: values may come before it. Bridge positions count the residues as written; N and C are the ends. Peptide text beside a SMILES is read from it.
Assays:
[1] = biological target: Herceptin (human IgG1) (human); experiment: SPR
[2] = biological target: Herceptin (human IgG1) (human); experiment: ITC
Herceptin (human IgG1) = Herceptin (human IgG1) (Homo sapiens, UniProt P01857); experiment: Isothermal titration calorimetry; conditions: ITC, 25 °C, single-site binding model, measured three times
Herceptin (human IgG1), sequence (P01857 104-328): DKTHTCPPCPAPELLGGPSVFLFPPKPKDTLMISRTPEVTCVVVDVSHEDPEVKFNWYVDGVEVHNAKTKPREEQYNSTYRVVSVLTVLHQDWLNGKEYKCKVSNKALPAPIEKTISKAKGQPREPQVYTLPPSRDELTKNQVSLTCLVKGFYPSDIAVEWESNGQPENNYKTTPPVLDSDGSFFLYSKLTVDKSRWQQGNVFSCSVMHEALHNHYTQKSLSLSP

Compound: 15-Lys8Phe (peptide)
- pKd [1]: 7.40

Compound: 15-Lys8Tle (peptide)
- pKd [2]: 6.70

- ΔG (Herceptin (human IgG1)): –9.1 ± 0.0 kcal/mol
- ΔH (Herceptin (human IgG1)): –13 ± 0 kcal/mol
- –TΔS (Herceptin (human IgG1)): 3.5 ± 0.1 kcal/mol
Compound: CC(=O)N[C@@H](CC(=O)O)C(=O)N[C@H]1CSSC[C@@H](C(=O)N[C@H](C(=O)N[C@@H](Cc2ccccc2)C(=O)N[C@@H](Cc2c[nH]cn2)C(N)=O)[C@@H](C)O)NC(=O)[C@H](Cc2c[nH]c3ccccc23)NC(=O)[C@H](C(C)C)NC(=O)[C@H](CC(C)C)NC(=O)[C@H](CCC(=O)O)NC(=O)CNC(=O)[C@H](CCCCN)NC(=O)[C@H](Cc2c[nH]cn2)NC(=O)[C@H](Cc2ccc(O)cc2)NC(=O)[C@H](C)NC1=O [15-IgBP] (Ac-DCAYHKGELVWCTFH-NH2; disulfide 2-12)
